Assays:
Conditions in all cases: 72 h
Caco-2 [1] = assay: cell viability relative to DMSO; higher = less toxic
Calu-3 [2] = assay: as above
HepG2 [3] = assay: as above
U2OS [4] = assay: as above
Vero E6 [5] = assay: as above
Caco-2 [6] = assay: relative viability EC50 (midpoint between 100% and the lowest measured viability); higher = less toxic
Calu-3 [7] = assay: as above
HepG2 [8] = assay: as above
U2OS [9] = assay: as above
Vero E6 [10] = assay: as above
Caco-2 [11] = assay: drug sensitivity score (DSS) for viability; higher = more toxic; extreme values may be limits of the assay
Calu-3 [12] = assay: as above
HepG2 [13] = assay: as above
U2OS [14] = assay: as above
Vero E6 [15] = assay: as above

Row | Compound | cell viability (Caco-2 [1]; 1 nM) [%] | cell viability (Caco-2 [1]; 10 nM) [%] | cell viability (Caco-2 [1]; 100 nM) [%] | cell viability (Caco-2 [1]; 1000 nM) [%] | cell viability (Caco-2 [1]; 10000 nM) [%] | cell viability (Calu-3 [2]; 1 nM) [%] | cell viability (Calu-3 [2]; 10 nM) [%] | cell viability (Calu-3 [2]; 100 nM) [%] | cell viability (Calu-3 [2]; 1000 nM) [%] | cell viability (Calu-3 [2]; 10000 nM) [%] | cell viability (HepG2 [3]; 1 nM) [%] | cell viability (HepG2 [3]; 10 nM) [%] | cell viability (HepG2 [3]; 100 nM) [%] | cell viability (HepG2 [3]; 1000 nM) [%] | cell viability (HepG2 [3]; 10000 nM) [%] | cell viability (U2OS [4]; 1 nM) [%] | cell viability (U2OS [4]; 10 nM) [%] | cell viability (U2OS [4]; 100 nM) [%] | cell viability (U2OS [4]; 1000 nM) [%] | cell viability (U2OS [4]; 10000 nM) [%] | cell viability (Vero E6 [5]; 1 nM) [%] | cell viability (Vero E6 [5]; 10 nM) [%] | cell viability (Vero E6 [5]; 100 nM) [%] | cell viability (Vero E6 [5]; 1000 nM) [%] | cell viability (Vero E6 [5]; 10000 nM) [%] | relative viability EC50 (Caco-2 [6]) [µM] | relative viability EC50 (Calu-3 [7]) [µM] | relative viability EC50 (HepG2 [8]) [µM] | relative viability EC50 (U2OS [9]) [µM] | relative viability EC50 (Vero E6 [10]) [µM] | drug sensitivity score (Caco-2 [11]) | drug sensitivity score (Calu-3 [12]) | drug sensitivity score (HepG2 [13]) | drug sensitivity score (U2OS [14]) | drug sensitivity score (Vero E6 [15])
1 | NC1CCN(c2cccc(Cl)n2)CC1 | 95.9 | 97 | 96.6 | 103 | 96.5 | 89.4 | 93 | 99.5 | 87.9 | 102 | 94.8 | 100 | 102 | 111 | 101 | 101 | 101 | 101 | 102 | 95.2 | 101 | 100 | 94.3 | 96 | 96.2 | > 10 | > 10 | > 10 | > 10 | > 10 | 0 | 0 | 0 | 0 | 0
2 | Cc1ccc(Sc2cncc3sc(C(N)=O)cc23)cc1 | 97.7 | 92.1 | 96.5 | 89.2 | 90.8 | 95.7 | 102 | 89.6 | 90.9 | 80.6 | 94.4 | 105 | 86.7 | 87.6 | 87.7 | 100 | 97.5 | 110 | 108 | 113 | 94.3 | 98.3 | 82 | 91.4 | 98.1 | > 10 | > 10 | > 10 | > 10 | > 10 | 0 | 1.2 | 1.6 | 0 | 0
3 | CCN(CC)CCNC(=O)c1ccc(N)cc1 [procainamide] | 88.5 | 97.6 | 96.1 | 105 | 101 | 105 | 110 | 93.5 | 99.5 | 98.7 | 99.9 | 115 | 107 | 102 | 106 | 94.9 | 97.9 | 98.8 | 101 | 100 | 95.9 | 97.4 | 92.6 | 94.1 | 106 | > 10 | > 10 | > 10 | > 10 | > 10 | 0 | 0 | 0 | 0 | 0
4 | CO[C@@]1(NC(=O)C2SC(=C(C(N)=O)C(=O)O)S2)C(=O)N2C(C(=O)O)=C(CSc3nnnn3C)CS[C@@H]21 (stereo not given in full) [cefotetan] | 92.4 | 95.3 | 93.6 | 95.9 | 101 | 109 | 94.1 | 108 | 105 | 103 | 108 | 89.7 | 99.1 | 100 | 103 | 98.3 | 99.6 | 98.5 | 99.8 | 96.1 | 105 | 104 | 103 | 98.2 | 99.9 | > 10 | > 10 | > 10 | > 10 | > 10 | 0 | 0 | 0 | 0 | 0
5 | CN1CCc2c(c3ccccc3n2Cc2ccc(C(=O)NO)cc2)C1 [tubastatin-A] | 97.2 | 91.2 | 99 | 93.3 | 88.9 | 108 | 93.5 | 99.6 | 89.9 | 81.5 | 107 | 104 | 90.1 | 90.9 | 36.9 | 102 | 97 | 99.3 | 89.2 | 84 | 98.7 | 102 | 101 | 102 | 78.3 | > 10 | > 10 | 2.02 | > 10 | > 10 | 0 | 1.2 | 5 | 1 | 0.6
6 | Nc1nc2c(ncn2[C@@H]2O[C@H](CO)[C@@H](O)[C@H]2O)c(=O)[nH]1 [guanosine] | 85.6 | 102 | 97.8 | 99.9 | 105 | 96 | 102 | 100 | 97 | 101 | 102 | 95.8 | 105 | 100 | 102 | 96.9 | 102 | 98.2 | 100 | 102 | 92.6 | 93.5 | 92.4 | 89.7 | 102 | > 10 | > 10 | > 10 | > 10 | > 10 | 0 | 0 | 0 | 0 | 0
7 | N[C@@H](CC(=O)N1CCn2c(nnc2C(F)(F)F)C1)Cc1n[nH]c2c(F)c(F)ccc12 [PK-44] | 87.8 | 96.3 | 102 | 105 | 92.4 | 95.3 | 96.6 | 95.8 | 100 | 100 | 102 | 92 | 114 | 91.5 | 91 | 102 | 100 | 99.4 | 104 | 99.7 | 102 | 103 | 104 | 98.4 | 100 | > 10 | > 10 | > 10 | > 10 | > 10 | 0 | 0 | 0 | 0 | 0
